{
  "source": "patent US20230150970A1",
  "about": "“AMINOPYRIMIDINE DERIVATIVES AND THEIR USE AS ARYL HYDROCARBON RECEPTOR MODULATORS” (DONG-A ST CO., LTD., priority 2020, published 2023)",
  "data": [
    {"target": "T1, AhR (Homo sapiens, UniProt P35869)", "T1 sequence (P35869 11-848)": "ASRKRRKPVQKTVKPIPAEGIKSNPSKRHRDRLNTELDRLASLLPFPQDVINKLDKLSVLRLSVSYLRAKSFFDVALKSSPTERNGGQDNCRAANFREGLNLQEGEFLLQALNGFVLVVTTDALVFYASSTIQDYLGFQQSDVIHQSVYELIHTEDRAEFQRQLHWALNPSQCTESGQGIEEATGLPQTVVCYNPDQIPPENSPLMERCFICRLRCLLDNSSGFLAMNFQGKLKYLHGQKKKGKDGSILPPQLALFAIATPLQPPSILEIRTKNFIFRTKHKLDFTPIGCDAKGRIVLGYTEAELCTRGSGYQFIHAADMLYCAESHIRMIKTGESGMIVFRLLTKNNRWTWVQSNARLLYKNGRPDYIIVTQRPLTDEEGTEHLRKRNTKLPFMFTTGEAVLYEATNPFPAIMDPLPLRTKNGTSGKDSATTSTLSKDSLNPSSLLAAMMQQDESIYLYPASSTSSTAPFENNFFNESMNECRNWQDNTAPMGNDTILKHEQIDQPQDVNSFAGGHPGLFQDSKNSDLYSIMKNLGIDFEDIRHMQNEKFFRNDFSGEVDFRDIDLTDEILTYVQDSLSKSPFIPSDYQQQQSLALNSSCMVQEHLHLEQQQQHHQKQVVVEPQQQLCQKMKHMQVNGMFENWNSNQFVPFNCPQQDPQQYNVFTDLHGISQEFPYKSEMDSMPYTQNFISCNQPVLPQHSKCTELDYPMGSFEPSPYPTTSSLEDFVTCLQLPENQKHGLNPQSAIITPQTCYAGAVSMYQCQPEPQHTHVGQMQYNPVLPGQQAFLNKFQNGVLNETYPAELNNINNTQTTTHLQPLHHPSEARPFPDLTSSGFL", "test": "In Vitro Assay 1: XRE-luciferase reporter assay, antagonism in human cell line (HepG2)", "conditions": "Assay 1: AhR-Luc Human Antagonism (IC50, nM), values marked *: kynurenine 50 μM, 6 hours", "units": {"IC50": "nM"}, "values": [
      {"smiles": "COC(=O)[C@H]1CN(c2cc(-c3ccc(Cl)cc3)nc(-c3cccnc3)n2)CCN1", "note": "[Example 78, methyl (R)-4-(6-(4-chlorophenyl)-2-(pyridin-3-yl)pyrimidin-4-yl)piperazine-2-carboxylate]", "IC50": "> 1000"},
      {"smiles": "Clc1ccc(-c2cc(N3CCN(c4cccc(Cl)c4Cl)CC3)nc(-c3cccnc3)n2)cc1", "note": "[Example 80, 4-(4-chlorophenyl)-6-(4-(2,3-dichlorophenyl)piperazin-1-yl)-2-(pyridin-3-yl)pyrimidine]", "IC50": "> 1000"},
      {"smiles": "COc1ccc(OC)c(CN2CCN(c3cc(-c4ccc(Cl)cc4)nc(-c4cccnc4)n3)CC2)c1", "note": "[Example 81, 4-(4-chlorophenyl)-6-(4-(2,5-dimethoxybenzyl)piperazin-1-yl)-2-(pyridin-3-yl)pyrimidine]", "IC50": "< 10"},
      {"smiles": "OCCN1CCN(c2cc(-c3ccc(Cl)cc3)nc(-c3cccnc3)n2)CC1", "note": "[Example 82, 2-(4-(6-(4-chlorophenyl)-2-(pyridin-3-yl)pyrimidin-4-yl)piperazin-1-yl)ethan-1-ol]", "IC50": "< 10"},
      {"smiles": "COc1ccccc1N1CCN(c2cc(-c3ccc(Cl)cc3)nc(-c3cccnc3)n2)CC1", "note": "[Example 83, 4-(4-chlorophenyl)-6-(4-(2-methoxyphenyl)piperazin-1-yl)-2-(pyridin-3-yl)pyrimidine]", "IC50": "10 to 100"},
      {"smiles": "CCOc1ccccc1N1CCN(c2cc(-c3ccc(Cl)cc3)nc(-c3cccnc3)n2)CC1", "note": "[Example 84, 4-(4-chlorophenyl)-6-(4-(2-ethoxyphenyl)piperazin-1-yl)-2-(pyridin-3-yl)pyrimidine]", "IC50": "> 1000"},
      {"smiles": "Fc1ccccc1N1CCN(c2cc(-c3ccc(Cl)cc3)nc(-c3cccnc3)n2)CC1", "note": "[Example 85, 4-(4-chlorophenyl)-6-(4-(2-fluorophenyl)piperazin-1-yl)-2-(pyridin-3-yl)pyrimidine]", "IC50": "100 to 1000"},
      {"smiles": "O=C(c1ccco1)N1CCN(c2cc(-c3ccc(Cl)cc3)nc(-c3cccnc3)n2)CC1", "note": "[Example 86, (4-(6-(4-chlorophenyl)-2-(pyridin-3-yl)pyrimidin-4-yl)piperazin-1-yl)(furan-2-yl)methanone]", "IC50": "10 to 100"},
      {"smiles": "Clc1ccc(-c2cc(N3CCN(CCc4ccccc4)CC3)nc(-c3cccnc3)n2)cc1", "note": "[Example 87, 4-(4-chlorophenyl)-6-(4-phenethylpiperazin-1-yl)-2-(pyridin-3-yl)pyrimidine]", "IC50": "10 to 100"},
      {"smiles": "Clc1ccc(-c2cc(NCCN3CCNCC3)nc(-c3cccnc3)n2)cc1", "note": "[Example 88, 6-(4-chlorophenyl)-N-(2-(piperazin-1-yl)ethyl)-2-(pyridin-3-yl)pyrimidin-4-amine]", "IC50": "> 1000"},
      {"smiles": "Clc1ccc(-c2cc(N3CCN(c4ccccn4)CC3)nc(-c3cccnc3)n2)cc1", "note": "[Example 89, 4-(4-chlorophenyl)-6-(4-(pyridin-2-yl)piperazin-1-yl)-2-(pyridin-3-yl)pyrimidine]", "IC50": "10 to 100"},
      {"smiles": "Clc1ccc(-c2cc(N3CCN(CCN4CCOCC4)CC3)nc(-c3cccnc3)n2)cc1", "note": "[Example 91, 4-(2-(4-(6-(4-chlorophenyl)-2-(pyridin-3-yl)pyrimidin-4-yl)piperazin-1-yl)ethyl)morpholine]", "IC50": "10 to 100"},
      {"smiles": "Clc1ccc(-c2cc(N3CCN(C/C=C/c4ccccc4)CC3)nc(-c3cccnc3)n2)cc1", "note": "[Example 93, trans-4-(4-chlorophenyl)-6-(4-cinnamylpiperazin-1-yl)-2-(pyridin-3-yl)pyrimidine]", "IC50": "10 to 100"},
      {"smiles": "Clc1ccc(-c2cc(N3CCN(c4ccccc4)CC3)nc(-c3cccnc3)n2)cc1", "note": "[Example 95, 4-(4-chlorophenyl)-6-(4-phenylpiperazin-1-yl)-2-(pyridin-3-yl)pyrimidine]", "IC50": "10 to 100"},
      {"smiles": "CCCN1CCN(c2cc(-c3ccc(Cl)cc3)nc(-c3cccnc3)n2)CC1", "note": "[Example 96, 4-(4-chlorophenyl)-6-(4-propylpiperazin-1-yl)-2-(pyridin-3-yl)pyrimidine]", "IC50": "< 10"},
      {"smiles": "Clc1ccc(-c2cc(N3CCN(Cc4ccc5c(c4)OCO5)CC3)nc(-c3cccnc3)n2)cc1", "note": "[Example 97, 4-(4-(benzo[d][1,3]dioxol-5-ylmethyl)piperazin-1-yl)-6-(4-chlorophenyl)-2-(pyridin-3-yl)pyrimidine]", "IC50": "< 10"},
      {"smiles": "OC[C@@H]1CN(c2cc(-c3ccc(Cl)cc3)nc(-c3cccnc3)n2)CCN1", "note": "[Example 98, (S)-(4-(6-(4-chlorophenyl)-2-(pyridin-3-yl)pyrimidin-4-yl)piperazin-2-yl)methanol]", "IC50": "> 1000"},
      {"smiles": "Fc1ccc(N2CCN(c3cc(-c4ccc(Cl)cc4)nc(-c4cccnc4)n3)CC2)cc1", "note": "[Example 99, 4-(4-chlorophenyl)-6-(4-(4-fluorophenyl)piperazin-1-yl)-2-(pyridin-3-yl)pyrimidine]", "IC50": "10 to 100"},
      {"smiles": "CN1C(C)(C)CC(Nc2cc(-c3ccc(Cl)cc3)nc(-c3cccnc3)n2)CC1(C)C", "note": "[Example 100, 6-(4-chlorophenyl)-N-(1,2,2,6,6-pentamethylpiperidin-4-yl)-2-(pyridin-3-yl)pyrimidin-4-amine]", "IC50": "> 1000"},
      {"smiles": "Clc1ccc(-c2cc(NC3CCCNC3)nc(-c3cccnc3)n2)cc1", "note": "(centres unmarked) [Example 101, 6-(4-chlorophenyl)-N-(piperidin-3-yl)-2-(pyridin-3-yl)pyrimidin-4-amine]", "IC50": "100 to 1000"},
      {"smiles": "Clc1ccc(-c2cc(N3CCNCC3)nc(-c3cccnc3)n2)cc1", "note": "[Example 102, 4-(4-chlorophenyl)-6-(piperazin-1-yl)-2-(pyridin-3-yl)pyrimidine]", "IC50": "100 to 1000"},
      {"smiles": "C[C@@H]1CN(c2cc(-c3ccc(Cl)cc3)nc(-c3cccnc3)n2)C[C@H](C)N1", "note": "[Example 104, Cis-4-(4-chlorophenyl)-6-(3,5-dimethylpiperazin-1-yl)-2-(pyridin-3-yl)pyrimidine]", "IC50": "> 1000"},
      {"smiles": "CCN1CCN(c2cc(-c3ccc(Cl)cc3)nc(-c3cccnc3)n2)CC1", "note": "[Example 106, 4-(4-chlorophenyl)-6-(4-ethylpiperazin-1-yl)-2-(pyridin-3-yl)pyrimidine]", "IC50": "10 to 100"},
      {"smiles": "CC(=O)N1CCN(c2cc(-c3ccc(Cl)cc3)nc(-c3cccnc3)n2)CC1", "note": "[Example 108, 1-(4-(6-(4-chlorophenyl)-2-(pyridin-3-yl)pyrimidin-4-yl)piperazin-1-yl)ethan-1-one]", "IC50": "< 10"},
      {"smiles": "CCC1CN(c2cc(-c3ccc(Cl)cc3)nc(-c3cccnc3)n2)CCN1", "note": "(centres unmarked) [Example 109, 4-(4-chlorophenyl)-6-(3-ethylpiperazin-1-yl)-2-(pyridin-3-yl)pyrimidine]", "IC50": "> 1000"},
      {"smiles": "CCOC(=O)N1CCN(c2cc(-c3ccc(Cl)cc3)nc(-c3cccnc3)n2)CC1", "note": "[Example 110, ethyl 4-(6-(4-chlorophenyl)-2-(pyridin-3-yl)pyrimidin-4-yl)piperazine-1-carboxylate]", "IC50": "< 10"},
      {"smiles": "O=C(O)C1CN(c2cc(-c3ccc(Cl)cc3)nc(-c3cccnc3)n2)CCN1", "note": "(centres unmarked) [Example 111, 4-(6-(4-chlorophenyl)-2-(pyridin-3-yl)pyrimidin-4-yl)piperazine-2-carboxylic acid]", "IC50": "> 1000"},
      {"smiles": "COC(=O)C1CNCCN1c1cc(-c2ccc(Cl)cc2)nc(-c2cccnc2)n1", "note": "(centres unmarked) [Example 112, methyl 1-(6-(4-chlorophenyl)-2-(pyridin-3-yl)pyrimidin-4-yl)piperazine-2-carboxylate]", "IC50": "> 1000"},
      {"smiles": "Clc1ccc(-c2cc(N3CCNC[C@@H]3c3ccccc3)nc(-c3cccnc3)n2)cc1", "note": "[Example 113, (S)-4-(4-chlorophenyl)-6-(2-phenylpiperazin-1-yl)-2-(pyridin-3-yl)pyrimidine]", "IC50": "> 1000"},
      {"smiles": "Cc1ccccc1N1CCN(c2cc(-c3ccc(Cl)cc3)nc(-c3cccnc3)n2)CC1", "note": "[Example 114, 4-(4-chlorophenyl)-2-(pyridin-3-yl)-6-(4-(o-tolyl)piperazin-1-yl)pyrimidine]", "IC50": "> 1000"},
      {"smiles": "Cc1ccc(N2CCN(c3cc(-c4ccc(Cl)cc4)nc(-c4cccnc4)n3)CC2)cc1", "note": "[Example 115, 4-(4-chlorophenyl)-2-(pyridin-3-yl)-6-(4-(p-tolyl)piperazin-1-yl)pyrimidine]", "IC50": "> 1000"},
      {"smiles": "Cc1cccc(N2CCN(c3cc(-c4ccc(Cl)cc4)nc(-c4cccnc4)n3)CC2)c1", "note": "[Example 116, 4-(4-chlorophenyl)-2-(pyridin-3-yl)-6-(4-(m-tolyl)piperazin-1-yl)pyrimidine]", "IC50": "> 1000"},
      {"smiles": "FC(F)(F)c1cccc(N2CCN(c3cc(-c4ccc(Cl)cc4)nc(-c4cccnc4)n3)CC2)c1", "note": "[Example 117, 4-(4-chlorophenyl)-2-(pyridin-3-yl)-6-(4-(3-(trifluoromethyl)phenyl)piperazin-1-yl)pyrimidine]", "IC50": "100 to 1000"},
      {"smiles": "Clc1ccc(-c2cc(N3CCN(c4ccc(Cl)c(Cl)c4)CC3)nc(-c3cccnc3)n2)cc1", "note": "[Example 119, 4-(4-chlorophenyl)-6-(4-(3,4-dichlorophenyl)piperazin-1-yl)-2-(pyridin-3-yl)pyrimidine]", "IC50": "> 1000"},
      {"smiles": "COc1ccc(N2CCN(c3cc(-c4ccc(Cl)cc4)nc(-c4cccnc4)n3)CC2)cc1", "note": "[Example 120, 4-(4-chlorophenyl)-6-(4-(4-methoxyphenyl)piperazin-1-yl)-2-(pyridin-3-yl)pyrimidine]", "IC50": "< 10"}
    ]}
  ]
}
